Columns and labels:
[1] = molecular target: T1, h-GABA-A α5β3γ2 (Homo sapiens, UniProt P18507+P31644); assay: Two-electrode voltage clamp electrophysiology in Xenopus laevis oocytes expressing GABAA receptors, modulation of GABA EC20 current; type: cell-based; design: host or cells: Xenopus laevis oocytes micro-injected with RNA transcripts of the subunits; conditions: Table 1; for Efficacy (GABA) %: % modulation of GABA EC20 = 100*(Fold increase-1); for Fold increase h-GABA-A α5β3γ2 oocyte: test compound at approx. 30 fold its Ki, GABA at EC20
Summary of the method: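 Human α5β3γ2 GABAA receptors were expressed in Xenopus oocytes by RNA injection, with γ2 RNA 5–10-fold higher, and recorded 3–5 days later by two-electrode voltage clamp at −80 mV at room temperature. The test compound, at about 30× its Ki, was co-applied during a second GABA EC20 pulse. Efficacy is the extremum of the point-by-point ratio to the first response, expressed as 100*(Fold increase−1).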

[2] = molecular target: T1, h-GABA-A α5β3γ2; assay: [3H]flumazenil competition binding assay, membranes of HEK293 cells expressing GABAA receptors; conditions: displacement of [3H]-Flumazenil 0.5 nM, HEK293 cells expressing human receptors, mean of two determinations; Table 1
Summary of the method: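 Membranes from HEK293 cells transiently expressing human α5β3γ2 GABAA receptors, in Krebs-tris buffer pH 7.5, competed against [3H]flumazenil for 1 hour at 4° C to equilibrium. Bound radioactivity collected on GF/C filters and counted by liquid scintillation; Ki values are means of two determinations.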

Row | SMILES | Efficacy (GABA) % [1] [%] | Fold increase h-GABA-A α5β3γ2 oocyte [1] | Ki [2] [nM]
1 | Cc1ccc(-c2noc(C3CC3)c2Cn2ncc(N3CC4(CCCCO4)C3)cc2=O)nn1 [Example 259, 2-[[5-cyclopropyl-3-(6-methylpyridazin-3-yl)isoxazol-4-yl]methyl]-5-(5-oxa-2-azaspiro[3.5]nonan-2-yl)pyridazin-3-one] | 193 | 2.93 | 36.2
2 | Cc1onc(-c2ccc(C3CC3)nc2)c1Cn1ncc(N2CC3(C2)CC(F)(F)CO3)cc1=O [Example 260, 2-((3-(6-cyclopropylpyridin-3-yl)-5-methylisoxazol-4-yl)methyl)-5-(7,7-difluoro-5-oxa-2-azaspiro[3.4]octan-2-yl)pyridazin-3(2H)-one] | 123 | 2.23 | 3.7
3 | Cc1ccc(-c2noc(C)c2Cn2ncc(N3CC[C@@H](OC(C)(C)C)C3)cc2=O)nn1 [Example 261, 5-[(3R)-3-tert-butoxypyrrolidin-1-yl]-2-[[5-methyl-3-(6-methylpyridazin-3-yl)isoxazol-4-yl]methyl]pyridazin-3-one] | 77 | 1.77 | 3.6
4 | COC1(C)CCN(c2cnn(Cc3c(-c4ccc(Cl)nc4)noc3C)c(=O)c2)CC1 [Example 262, 2-((3-(6-chloropyridin-3-yl)-5-methylisoxazol-4-yl)methyl)-5-(4-methoxy-4-methylpiperidin-1-yl)pyridazin-3(2H)-one] | 216 | 3.16 | 35.5
5 | Cc1onc(-c2ccc(Cl)nc2)c1Cn1ncc(N2CCN(c3ccnnc3)CC2)cc1=O [Example 263, 2-((3-(6-chloropyridin-3-yl)-5-methylisoxazol-4-yl)methyl)-5-(4-(pyridazin-4-yl)piperazin-1-yl)pyridazin-3(2H)-one] | 205 | 3.05 | 4.2
6 | Cc1ccc(-c2noc(C)c2Cn2ncc(N3CC(OC(C)(C)C(F)(F)F)C3)cc2=O)nn1 [Example 264, 2-[[5-methyl-3-(6-methylpyridazin-3-yl)isoxazol-4-yl]methyl]-5-[3-(2,2,2-trifluoro-1,1-dimethyl-ethoxy)azetidin-1-yl]pyridazin-3-one] | 93 | 1.93 | 3
7 | CCOC1CN(c2cnn(Cc3c(-c4ccc(C)nc4)noc3C)c(=O)c2Cl)C1 [Example 268, 4-chloro-5-(3-ethoxyazetidin-1-yl)-2-((5-methyl-3-(6-methylpyridin-3-yl)isoxazol-4-yl)methyl)pyridazin-3(2H)-one] | 184 | 2.84 | 16.6
8 | Cc1onc(-c2ccc(Cl)nn2)c1Cn1ncc(N2CC3(C2)CC(F)(F)CO3)cc1=O [Example 269, 2-((3-(6-chloropyridazin-3-yl)-5-methylisoxazol-4-yl)methyl)-5-(7,7-difluoro-5-oxa-2-azaspiro[3.4]octan-2-yl)pyridazin-3(2H)-one] | 70 | 1.7 | 1.4
9 | Cc1onc(-c2ccc(Cl)nc2)c1Cn1ncc(N2CCC3(CCO3)CC2)cc1=O [Example 270, 2-((3-(6-chloropyridin-3-yl)-5-methylisoxazol-4-yl)methyl)-5-(1-oxa-7-azaspiro[3.5]nonan-7-yl)pyridazin-3(2H)-one] | 144 | 2.44 | 27.8
10 | Cc1onc(-c2ccc(Cl)nn2)c1Cn1ncc(N2CC(OC(C)(C)C)C2)cc1=O [Example 271, 5-(3-(tert-butoxy)azetidin-1-yl)-2-((3-(6-chloropyridazin-3-yl)-5-methylisoxazol-4-yl)methyl)pyridazin-3(2H)-one] | 90 | 1.9 | 7.3
11 | CCOC1CN(c2cnn(Cc3c(-c4ccc(Cl)nc4)noc3C)c(=O)c2Cl)C1 [Example 272, 4-chloro-2-((3-(6-chloropyridin-3-yl)-5-methylisoxazol-4-yl)methyl)-5-(3-ethoxyazetidin-1-yl)pyridazin-3(2H)-one] | 135 | 2.35 | 26.4
12 | Cc1onc(-c2ccc(Cl)nc2)c1Cn1ncc(N2CCN(c3cncnc3)CC2)cc1=O [Example 277, 2-((3-(6-chloropyridin-3-yl)-5-methylisoxazol-4-yl)methyl)-5-(4-(pyrimidin-5-yl)piperazin-1-yl)pyridazin-3(2H)-one] | 131 | 2.31 | 3.4
13 | Cc1onc(-c2ccc(Cl)nc2)c1Cn1ncc(N2CCN(c3cccnc3)CC2)cc1=O [Example 278, 2-((3-(6-chloropyridin-3-yl)-5-methylisoxazol-4-yl)methyl)-5-(4-(pyridin-3-yl)piperazin-1-yl)pyridazin-3(2H)-one] | 108 | 2.08 | 8
14 | CCOC1CN(c2cnn(Cc3c(-c4ccc(C)nn4)noc3CF)c(=O)c2)C1 [Example 279, 5-(3-ethoxyazetidin-1-yl)-2-((5-(fluoromethyl)-3-(6-methylpyridazin-3-yl)isoxazol-4-yl)methyl)pyridazin-3(2H)-one] | 87 | 1.87 | 8.6
15 | Cc1nonc1N1CCN(c2cnn(Cc3c(-c4ccc(Cl)nc4)noc3C)c(=O)c2)CC1 [Example 280, 2-((3-(6-chloropyridin-3-yl)-5-methylisoxazol-4-yl)methyl)-5-(4-(4-methyl-1,2,5-oxadiazol-3-yl)piperazin-1-yl)pyridazin-3(2H)-one] | 166 | 2.66 | 7.5
16 | COC1CN(c2cnn(Cc3c(-c4ccc(C(F)(F)F)nn4)noc3C)c(=O)c2)C1 [Example 281, 5-(3-methoxyazetidin-1-yl)-2-((5-methyl-3-(6-(trifluoromethyl)pyridazin-3-yl)isoxazol-4-yl)methyl)pyridazin-3(2H)-one] | 105 | 2.05 | 9.4
17 | COc1ncc(-c2cnn(Cc3c(-c4ccc(Cl)nn4)noc3C)c(=O)c2)cc1Cl [Example 282, 5-(5-chloro-6-methoxypyridin-3-yl)-2-((3-(6-chloropyridazin-3-yl)-5-methylisoxazol-4-yl)methyl)pyridazin-3(2H)-one] | 166 | 2.66 | 1.5
18 | Cc1ncccc1N1CCN(c2cnn(Cc3c(-c4ccc(Cl)nc4)noc3C)c(=O)c2)CC1 [Example 285, 2-((3-(6-chloropyridin-3-yl)-5-methylisoxazol-4-yl)methyl)-5-(4-(2-methylpyridin-3-yl)piperazin-1-yl)pyridazin-3(2H)-one] | 84 | 1.84 | 2.6
19 | CO[C@H]1CN(c2cnn(Cc3c(-c4ccc(Cl)nc4)noc3C)c(=O)c2)[C@H]1C [Example 286, 2-((3-(6-chloropyridin-3-yl)-5-methylisoxazol-4-yl)methyl)-5-((2S,3S)-3-methoxy-2-methylazetidin-1-yl)pyridazin-3(2H)-one] | 112 | 2.12 | 3.3
20 | Cc1onc(-c2ccc(Cl)nc2)c1Cn1ncc(N2C[C@@H](O)[C@H]2C)cc1=O [Example 289, 2-((3-(6-chloropyridin-3-yl)-5-methylisoxazol-4-yl)methyl)-5-((2R,3R)-3-hydroxy-2-methylazetidin-1-yl)pyridazin-3(2H)-one] | 68 | 1.68 | 2.2
21 | CCO[C@H]1CN(c2cnn(Cc3c(-c4ccc(Cl)nc4)noc3C)c(=O)c2)[C@H]1C [Example 291, 2-((3-(6-chloropyridin-3-yl)-5-methylisoxazol-4-yl)methyl)-5-((2S,3S)-3-ethoxy-2-methylazetidin-1-yl)pyridazin-3(2H)-one] | 124 | 2.24 | 2.8
22 | CCO[C@@H]1CN(c2cnn(Cc3c(-c4ccc(Cl)nc4)noc3C)c(=O)c2)[C@@H]1C [Example 294, 2-((3-(6-chloropyridin-3-yl)-5-methylisoxazol-4-yl)methyl)-5-((2R,3R)-3-ethoxy-2-methylazetidin-1-yl)pyridazin-3(2H)-one] | 117 | 2.17 | 41.8
23 | Cc1ccc(-c2noc(CF)c2Cn2ncc(N3CC4(CCCO4)C3)cc2=O)nn1 [Example 295, 2-((5-(fluoromethyl)-3-(6-methylpyridazin-3-yl)isoxazol-4-yl)methyl)-5-(5-oxa-2-azaspiro[3.4]octan-2-yl)pyridazin-3(2H)-one] | 74 | 1.74 | 16
24 | Cc1ccc(-c2noc(C)c2Cn2ncc(N3CCC4(CCCCO4)CC3)cc2=O)nn1 [Example 302, 2-[[5-methyl-3-(6-methylpyridazin-3-yl)isoxazol-4-yl]methyl]-5-(1-oxa-9-azaspiro[5.5]undecan-9-yl)pyridazin-3-one] | 149 | 2.49 | 2
25 | COC1CC2(C1)CN(c1cnn(Cc3c(-c4ccc(Cl)nc4)noc3C)c(=O)c1)C2 [Example 303] | 138 | 2.38 | 23.7

Reference: US11840528B2 (Hoffmann-La Roche Inc., priority 2018, dated 2023)
